Like-named read-outs stand apart in the source and are kept apart here.
Tests used:
[1] = system: HCT-116 human colorectal carcinoma cells; experiment: Cell-proliferation assay using Alamar Blue dye; format: cell-based; settings: Homo sapiens;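 note: cells exposed to compound for about 4 days, then Alamar Blue added and dye fluorescence read after about 4 h, compared with medium-only control wells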
[2] = biological target: recombinant human PIM1 (Homo sapiens (Human), UniProt P11309); experiment: PIM-1 kinase activity in cell-free in vitro assay; format: biochemical; settings: for inhibition at 0.5 µM: 500 nM compound, read-out: PIM-1: % inh 500 nM
[3] = system: K-562; experiment: Cell proliferation modulatory activity, K-562; format: cell-based; settings: Homo sapiens, K562
[4] = system: Jurkat; experiment: Cell proliferation modulatory activity, Jurkat; format: cell-based; settings: Homo sapiens
[5] = system: K-562; experiment: Cell proliferation modulatory activity, K-562; format: cell-based; settings: Homo sapiens, K562; remark: listed apart in the source
[6] = system: MV-4-11; experiment: Cell proliferation modulatory activity, MV-4-11; format: cell-based; settings: Homo sapiens, MV4-11
[7] = biological target: recombinant human CK2 (Homo sapiens (Human), UniProt P68400); experiment: CK2 assay (cell-free, 33P-ATP filter plate); format: biochemical; settings: cell-free assay; for inhibition at 0.5 µM: 500 nM compound, read-out: CK2: % inh 500 nM
[8] = HCT-116, read-out: HCT-116 (uM), cell proliferation modulatory activity, HCT-116, second column
[9] = HCT-116, read-out: HCT-116 (uM), cell proliferation modulatory activity, HCT-116, second HCT-116 column (c8)
[10] = HCT-116, HCT-116, second HCT-116 column (c8), read-out: HCT-116 (uM), cell proliferation modulatory activity

Chain of recombinant human CK2 (P68400 whole entry): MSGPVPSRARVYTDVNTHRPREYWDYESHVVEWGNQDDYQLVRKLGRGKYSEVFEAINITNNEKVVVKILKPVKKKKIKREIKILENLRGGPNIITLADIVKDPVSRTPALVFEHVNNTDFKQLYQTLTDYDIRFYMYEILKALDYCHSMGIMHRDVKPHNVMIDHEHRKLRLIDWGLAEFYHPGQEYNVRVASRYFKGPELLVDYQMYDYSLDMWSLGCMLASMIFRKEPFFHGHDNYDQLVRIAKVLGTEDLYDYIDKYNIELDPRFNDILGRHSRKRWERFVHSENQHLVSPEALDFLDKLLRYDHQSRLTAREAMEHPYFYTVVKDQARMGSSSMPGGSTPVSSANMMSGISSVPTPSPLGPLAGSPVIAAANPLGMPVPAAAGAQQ
Chain of recombinant human CK2 (P67870 whole entry partner): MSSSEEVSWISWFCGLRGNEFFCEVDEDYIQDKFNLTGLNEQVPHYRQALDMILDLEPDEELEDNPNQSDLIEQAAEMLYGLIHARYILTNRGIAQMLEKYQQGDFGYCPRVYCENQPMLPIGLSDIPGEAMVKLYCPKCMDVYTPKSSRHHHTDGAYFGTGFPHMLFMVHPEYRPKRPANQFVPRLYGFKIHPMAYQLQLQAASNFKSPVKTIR
Chain of recombinant human PIM1 (P11309 whole entry): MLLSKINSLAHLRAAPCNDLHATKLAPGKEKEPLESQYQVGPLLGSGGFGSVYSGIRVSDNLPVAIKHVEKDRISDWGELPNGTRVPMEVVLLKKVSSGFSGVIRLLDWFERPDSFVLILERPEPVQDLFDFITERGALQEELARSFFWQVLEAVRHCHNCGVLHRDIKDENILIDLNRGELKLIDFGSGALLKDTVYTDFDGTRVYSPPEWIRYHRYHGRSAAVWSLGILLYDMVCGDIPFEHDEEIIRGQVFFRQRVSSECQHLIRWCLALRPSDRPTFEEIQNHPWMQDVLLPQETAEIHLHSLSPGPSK

SMILES	IC50 [1, 8] [µM]	inhibition at 0.5 µM ([2]; cell-free) [%]	IC50 ([2]; cell-free) [µM]	IC50 [3] [µM]	IC50 [1, 9] [µM]	inhibition at 0.5 µM ([2]; cell-free assay) [%]	IC50 [4] [µM]	IC50 [5] [µM]	IC50 [6] [µM]	IC50 ([2]; cell-free assay) [µM]	IC50 ([7]; 15 um ATP, read-out: CK2 (15 um ATP) IC50) [µM]	IC50 [1, 10] [µM]	inhibition at 0.5 µM [7] [%]
O=C(O)c1ccc2c(c1)nc(Nc1cccc(F)c1)c1ncncc12	7.1	77.8	0.367	1.77									
O=C(O)c1ccc2c(c1)nc(Nc1ccccc1)c1nc(NC3CC3)ncc12					1.94	18.4	2.42	0.494	0.195				
O=C(O)c1ccc2c(c1)nc(Nc1ccccc1)c1nc(NCCN3CCOCC3)ncc12						30.6	5.7	1.16	0.358				
O=C(O)c1ccc2c(c1)nc(Nc1ccc(Cl)c(C(F)(F)F)c1)c1ccncc12					3.99	73.6	3.05	> 10	> 10	0.408			
O=C(O)c1ccc2c(c1)nc(Nc1cccc(Cl)c1)c1nc(NC3CC3)ncc12					7.82		1.29	0.158	0.257				
CNc1ncc2c(n1)c(Nc1ccc(F)c(Cl)c1)nc1cc(C(=O)O)ccc12						18.6	1.24	> 10	0.655				
O=C(O)c1ccc2c(c1)nc(Nc1ccc(F)c(Cl)c1)c1nc(NC3CC3)ncc12						6.63	1.54	> 10	> 10				
C#Cc1cccc(Nc2nc3cc(C(=O)O)ccc3c3cnc(NCCOCC)nc23)c1						12.1	1.13	> 10	0.141				
Cc1cccc(Nc2nc3cc(C(=O)O)ccc3c3cnccc23)c1						86.7	3.45	> 10	0.593	0.177			
O=C(O)c1ccc2c(c1)nc(Nc1cccc(C(F)(F)F)c1)c1ccncc12					5.14	88.8	3.15	> 10	0.354	0.16			
O=C(NC1CC1)c1ccc2c(c1)nc(NC1CC1)c1nc(NC3CC3)ncc12						-11.9	0.436	> 10	0.497		> 0.75	0.818	
C#Cc1cccc(Nc2nc3cc(C(=O)N(C)C)ccc3c3cncnc23)c1						-27.8	1.18	9.79	4.62			0.545	
O=C(O)c1ccc2c(c1)nc(NCc1ccccn1)c1ccncc12						14.3		> 10	> 10			> 10	96.6
O=C(O)c1ccc2c(c1)nc(N1CCC(N3CCOCC3)CC1)c1ccncc12						20.7		> 10	> 10	0.31		> 10	90.5
COc1ccc(CCNc2nc3cc(C(=O)O)ccc3c3cnccc23)cc1OC						9.85		> 10	> 10			> 10	99
Cc1ccccc1Nc1nc2cc(C(=O)O)ccc2c2cnccc12						92.3	15.7	> 10	0.985	0.158		> 10	
O=C(O)c1ccc2c(c1)nc(NCCc1cccc(Cl)c1)c1ccncc12 [drawing 1559]	> 10	43.1	1.06	9.18									
O=C(O)c1ccc2c(c1)nc(NCCCc1ccccc1)c1ccncc12 [drawing 1561]	> 10	69.7	0.441	7.17									
C#Cc1cccc(Nc2nc3cc(C(=O)O)ccc3c3cnc(NCC4CCCO4)nc23)c1 (stereo not shown) [drawing 1605]					> 10	1.48	2.04	> 10	0.284				
C#Cc1cccc(Nc2nc3cc(C(=O)O)ccc3c3cnc(NCC4CC4)nc23)c1 [drawing 1606]					> 10	3.08	0.424	0.25	0.128				
